Measurements from the CheMixHub viscosity set.

Test: xn = mol fraction of the nth substance listed

CCOC(=O)CCl + CCCCCCCCC
viscosity [mPa·s], 101.33 kPa
Details | x1 = 0.1004 | x1 = 0.2033 | x1 = 0.3013 | x1 = 0.4018 | x1 = 0.5019 | x1 = 0.6012 | x1 = 0.7037 | x1 = 0.8037 | x1 = 0.9012
298.15 K | 0.66 | 0.665 | 0.686 | 0.716 | 0.755 | 0.799 | 0.849 | 0.907 | 0.982
303.15 K | 0.62 | 0.623 | 0.644 | 0.67 | 0.705 | 0.743 | 0.792 | 0.842 | 0.912
308.15 K | 0.58 | 0.583 | 0.602 | 0.624 | 0.654 | 0.688 | 0.735 | 0.778 | 0.843

c1ccc2c(c1)CCCC2 + CCCCCCCCC
viscosity [mPa·s], 101 kPa
Details | x2 = 0.1063 | x2 = 0.2018 | x2 = 0.3066 | x2 = 0.4057 | x2 = 0.5014 | x2 = 0.6005 | x2 = 0.704 | x2 = 0.7942 | x2 = 0.8898
293.15 K | 1.814 | 1.585 | 1.352 | 1.198 | 1.082 | 0.976 | 0.89 | 0.826 | 0.784
298.15 K | 1.653 | 1.45 | 1.254 | 1.111 | 1.006 | 0.908 | 0.833 | 0.775 | 0.735
303.15 K | 1.518 | 1.334 | 1.151 | 1.034 | 0.937 | 0.848 | 0.777 | 0.728 | 0.69
313.15 K | 1.308 | 1.148 | 0.997 | 0.905 | 0.821 | 0.749 | 0.69 | 0.649 | 0.615

CCOC(=O)CCl + CCCCCCCCCC
viscosity [mPa·s], 101.33 kPa
Details | x1 = 0.0992 | x1 = 0.2037 | x1 = 0.3031 | x1 = 0.4005 | x1 = 0.5016 | x1 = 0.6027 | x1 = 0.7039 | x1 = 0.8019 | x1 = 0.9008
298.15 K | 0.821 | 0.825 | 0.828 | 0.843 | 0.869 | 0.897 | 0.93 | 0.969 | 1.024
303.15 K | 0.761 | 0.766 | 0.767 | 0.78 | 0.801 | 0.827 | 0.854 | 0.885 | 0.946
308.15 K | 0.707 | 0.713 | 0.719 | 0.725 | 0.742 | 0.765 | 0.791 | 0.829 | 0.872

COC(=O)c1ccccc1 + CCCCCCCCCC
101 kPa
Details | viscosity [mPa·s]
298.15 K, x2 = 0.0262 | 1.743
298.15 K, x2 = 0.0672 | 1.629
298.15 K, x2 = 0.1282 | 1.488
298.15 K, x2 = 0.172 | 1.406
298.15 K, x2 = 0.2455 | 1.29
298.15 K, x2 = 0.2831 | 1.234
298.15 K, x2 = 0.3238 | 1.184
298.15 K, x2 = 0.3645 | 1.141
298.15 K, x2 = 0.4095 | 1.095
298.15 K, x2 = 0.458 | 1.05
298.15 K, x2 = 0.5093 | 1.012
298.15 K, x2 = 0.563 | 0.972
298.15 K, x2 = 0.6077 | 0.946
298.15 K, x2 = 0.6694 | 0.915
298.15 K, x2 = 0.7276 | 0.891
298.15 K, x2 = 0.8044 | 0.868
298.15 K, x2 = 0.8571 | 0.855
298.15 K, x2 = 0.9293 | 0.845
308.15 K, x2 = 0.0467 | 1.4
308.15 K, x2 = 0.0764 | 1.34
308.15 K, x2 = 0.1148 | 1.271
308.15 K, x2 = 0.1464 | 1.219
308.15 K, x2 = 0.1853 | 1.163
308.15 K, x2 = 0.2147 | 1.12
308.15 K, x2 = 0.2537 | 1.076
308.15 K, x2 = 0.2939 | 1.031
308.15 K, x2 = 0.3391 | 0.988
308.15 K, x2 = 0.3803 | 0.956
308.15 K, x2 = 0.429 | 0.922
308.15 K, x2 = 0.4756 | 0.894
308.15 K, x2 = 0.5274 | 0.866
308.15 K, x2 = 0.575 | 0.841
308.15 K, x2 = 0.6318 | 0.816
308.15 K, x2 = 0.6926 | 0.79
308.15 K, x2 = 0.7434 | 0.775
308.15 K, x2 = 0.8116 | 0.759
308.15 K, x2 = 0.887 | 0.747
318.15 K, x2 = 0.0153 | 1.249
318.15 K, x2 = 0.0485 | 1.196
318.15 K, x2 = 0.0774 | 1.151
318.15 K, x2 = 0.113 | 1.101
318.15 K, x2 = 0.1467 | 1.058
318.15 K, x2 = 0.1837 | 1.015
318.15 K, x2 = 0.2171 | 0.977
318.15 K, x2 = 0.2582 | 0.936
318.15 K, x2 = 0.2931 | 0.903
318.15 K, x2 = 0.3395 | 0.863
318.15 K, x2 = 0.3892 | 0.826
318.15 K, x2 = 0.4363 | 0.795
318.15 K, x2 = 0.4972 | 0.76
318.15 K, x2 = 0.5486 | 0.734
318.15 K, x2 = 0.6025 | 0.713
318.15 K, x2 = 0.6669 | 0.692
318.15 K, x2 = 0.7208 | 0.678
318.15 K, x2 = 0.7971 | 0.663
318.15 K, x2 = 0.8627 | 0.655
